{
  "source": "ChEMBL document CHEMBL5543109",
  "about": "“Novel β-Hairpin Antimicrobial Peptide Containing the β-Turn Sequence of -NG- and the Tryptophan Zippers Facilitate Self-Assembly into Nanofibers, Exhibiting Excellent Antimicrobial Performance” (J Med Chem, 2024)",
  "key": {"[1]": {"assay": "Toxicity in BALB/c mouse infected with Staphylococcus aureus 794 assessed as cell necrosis at 1 mg/ml, ip pre-infected with bacteria for 24 hrs followed by compound addition and measured after 13 days by H and E staining based histopathological analysis", "format": "organism-based", "conditions": "in vivo, 312 h, time 13 day"}, "Staphylococcus aureus [2]": {"test_system": "Staphylococcus aureus", "assay": "Antibacterial activity against methicillin resistant Staphylococcus aureus incubated for 18 hrs by broth microdilution method", "format": "functional"}, "[3]": {"assay": "Toxicity in BALB/c mouse infected with Staphylococcus aureus 794 assessed as inflammatory cell infiltration at 1 mg/ml, ip pre-infected with bacteria for 24 hrs followed by compound addition and measured after 13 days by H and E staining based histopathological analysis", "format": "organism-based", "conditions": "in vivo, 312 h, time 13 day"}, "Staphylococcus aureus [4]": {"test_system": "Staphylococcus aureus", "assay": "Antibacterial activity against Staphylococcus aureus 794 infected in BALB/c mouse skin wound infection model assessed as wound healing by measuring thickened scab at 1 mg/ml, ip pre-infected with bacteria for 24 hrs followed by compound addition and measured on day 9", "format": "functional, organism-based", "conditions": "time 9.0 day"}, "Escherichia coli [5]": {"test_system": "Escherichia coli", "assay": "Antibacterial activity against Escherichia coli incubated for 18 hrs by broth microdilution method", "format": "functional"}, "[6]": {"assay": "Toxicity in BALB/c mouse infected with Staphylococcus aureus 794 assessed as hyperkeratosis at 1 mg/ml, ip pre-infected with bacteria for 24 hrs followed by compound addition and measured after 13 days by H and E staining based histopathological analysis", "format": "organism-based", "conditions": "in vivo, 312 h, time 13 day"}, "Staphylococcus aureus [7]": {"test_system": "Staphylococcus aureus", "assay": "Antibacterial activity against Staphylococcus aureus 794 infected in BALB/c mouse skin wound infection model assessed as wound healing at 1 mg/ml, ip pre-infected with bacteria for 24 hrs followed by compound addition and measured on day 11", "format": "functional", "conditions": "time 11.0 day"}, "Escherichia coli [8]": {"test_system": "Escherichia coli", "assay": "Antibacterial activity against rifampicin resistant Escherichia coli incubated for 18 hrs by broth microdilution method", "format": "functional"}, "Staphylococcus aureus [9]": {"test_system": "Staphylococcus aureus", "assay": "Antibacterial activity against methicillin resistant Staphylococcus aureus 75 incubated for 18 hrs by broth microdilution method", "format": "functional"}, "Escherichia coli [10]": {"test_system": "Escherichia coli", "assay": "Antibacterial activity against kanamycin resistant Escherichia coli incubated for 18 hrs by broth microdilution method", "format": "functional"}, "Staphylococcus aureus [11]": {"test_system": "Staphylococcus aureus", "assay": "Antibacterial activity against rifampicin resistant Staphylococcus aureus incubated for 18 hrs by broth microdilution method", "format": "functional"}, "Staphylococcus aureus [12]": {"test_system": "Staphylococcus aureus", "assay": "Antibacterial activity against Staphylococcus aureus S125 incubated for 18 hrs by broth microdilution method", "format": "functional"}, "Staphylococcus aureus [13]": {"test_system": "Staphylococcus aureus", "assay": "Antibacterial activity against Staphylococcus aureus incubated for 18 hrs by broth microdilution method", "format": "functional"}, "Staphylococcus aureus [14]": {"test_system": "Staphylococcus aureus", "assay": "Antibacterial activity against Staphylococcus aureus 794 infected in BALB/c mouse skin wound infection model assessed as wound healing at 1 mg/ml, ip pre-infected with bacteria for 24 hrs followed by compound addition and measured after 13 days post infection", "format": "functional, organism-based", "conditions": "time 12.0 day"}, "Staphylococcus aureus [15]": {"test_system": "Staphylococcus aureus", "assay": "Antibacterial activity against Staphylococcus aureus S794 incubated for 18 hrs by broth microdilution method", "format": "functional"}, "Staphylococcus aureus [16]": {"test_system": "Staphylococcus aureus", "assay": "Antibacterial activity against kanamycin resistant Staphylococcus aureus incubated for 18 hrs by broth microdilution method", "format": "functional"}, "Staphylococcus aureus [17]": {"test_system": "Staphylococcus aureus", "assay": "Antibacterial activity against methicillin resistant Staphylococcus aureus 113 incubated for 18 hrs by broth microdilution method", "format": "functional"}, "Staphylococcus aureus [18]": {"test_system": "Staphylococcus aureus", "assay": "Antibacterial activity against Staphylococcus aureus ATCC 25923 infected in BALB/c mouse skin wound infection model assessed as reduction in wound bacterial load at 1 mg/ml, ip administered at 1 hr interval for total 6 treatment and measured after 1 hr post last dose", "format": "functional, organism-based", "conditions": "time 7.0 hrs"}, "Staphylococcus aureus [19]": {"test_system": "Staphylococcus aureus", "assay": "Antibacterial activity against Staphylococcus aureus 794 infected in BALB/c mouse skin wound infection model assessed as reduction in TNFalpha level at 1 mg/ml, ip pre-infected with bacteria for 24 hrs followed by compound addition and measured after 13 days post infection", "format": "functional, organism-based", "conditions": "time 12.0 day"}},
  "note": "Active and inactive are the calls of the source. The rule behind the calls is not given here.",
  "data": [
    {"smiles": "CN[C@H](CC(C)C)C(=O)N[C@H]1C(=O)N[C@@H](CC(N)=O)C(=O)N[C@H]2C(=O)N[C@H]3C(=O)N[C@H](C(=O)N[C@H](C(=O)O)c4cc(O)cc(O)c4-c4cc3ccc4O)[C@H](O)c3ccc(c(Cl)c3)Oc3cc2cc(c3O[C@@H]2O[C@H](CO)[C@@H](O)[C@H](O)[C@H]2O[C@H]2C[C@](C)(N)[C@H](O)[C@H](C)O2)Oc2ccc(cc2Cl)[C@H]1O", "note": "[VANCOMYCIN]", "values": [
      {"measurement": "Activity", "setting": "[1]", "result": "Toxic"},
      {"measurement": "MIC", "setting": "Staphylococcus aureus [2]", "result": 0.5, "unit": "µM"},
      {"measurement": "Activity", "setting": "[3]", "result": "Toxic"},
      {"measurement": "Activity", "setting": "Staphylococcus aureus [4]", "result": "Active"},
      {"measurement": "MIC", "setting": "Escherichia coli [5]", "result": 64, "unit": "µM"},
      {"measurement": "Activity", "setting": "[6]", "result": "Toxic"},
      {"measurement": "Activity", "setting": "Staphylococcus aureus [7]", "result": "inactive"},
      {"measurement": "MIC", "setting": "Escherichia coli [8]", "result": 128, "unit": "µM"},
      {"measurement": "MIC", "setting": "Staphylococcus aureus [9]", "result": 0.5, "unit": "µM"},
      {"measurement": "MIC", "setting": "Escherichia coli [10]", "result": 64, "unit": "µM"},
      {"measurement": "MIC", "setting": "Staphylococcus aureus [11]", "result": 128, "unit": "µM"},
      {"measurement": "MIC", "setting": "Staphylococcus aureus [12]", "result": 0.5, "unit": "µM"},
      {"measurement": "MIC", "setting": "Staphylococcus aureus [13]", "result": 0.5, "unit": "µM"},
      {"measurement": "Activity", "setting": "Staphylococcus aureus [14]", "result": "Active"},
      {"measurement": "MIC", "setting": "Staphylococcus aureus [15]", "result": 64, "unit": "µM"},
      {"measurement": "MIC", "setting": "Staphylococcus aureus [16]", "result": 0.5, "unit": "µM"},
      {"measurement": "MIC", "setting": "Staphylococcus aureus [17]", "result": 0.5, "unit": "µM"},
      {"measurement": "Activity", "setting": "Staphylococcus aureus [18]", "result": "Active"},
      {"measurement": "Activity", "setting": "Staphylococcus aureus [19]", "result": "Active"}
    ]}
  ]
}
